Data taken from PubChem BioAssay (NCI).
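Five compound concentrations were applied to cells in 96-well plates for 48 hours; endpoints were derived by simple linear interpolation of the resulting dose-response curve. TGI denotes the concentration required for complete inhibition of growth.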

Columns and labels:
Assay in all cases: NCI anticancer screen, dose series, 48 h
786-0 renal = system: 786-0 renal
A498 renal = system: A498 renal
A549 NSCLC = system: A549 NSCLC
ACHN renal = system: ACHN renal
BT-549 breast = system: BT-549 breast
CAKI-1 renal = system: CAKI-1 renal
CCRF-CEM leukemia = system: CCRF-CEM leukemia
COLO 205 colon = system: COLO 205 colon
DU-145 prostate = system: DU-145 prostate
EKVX NSCLC = system: EKVX NSCLC
HCT-116 colon = system: HCT-116 colon
HCT-15 colon = system: HCT-15 colon
HL-60(TB) leukemia = system: HL-60(TB) leukemia
HOP-62 NSCLC = system: HOP-62 NSCLC
HOP-92 NSCLC = system: HOP-92 NSCLC
HS 578T breast = system: HS 578T breast
HT29 colon = system: HT29 colon
IGROV1 ovarian = system: IGROV1 ovarian
K-562 leukemia = system: K-562 leukemia
KM12 colon = system: KM12 colon
LOX IMVI melanoma = system: LOX IMVI melanoma
M14 melanoma = system: M14 melanoma
MALME-3M melanoma = system: MALME-3M melanoma
MCF7 breast = system: MCF7 breast
MDA-MB-435 = system: MDA-MB-435
MDA-N = system: MDA-N
MOLT-4 leukemia = system: MOLT-4 leukemia
NCI-H226 lung = system: NCI-H226 lung
NCI-H23 lung = system: NCI-H23 lung
NCI-H460 lung = system: NCI-H460 lung
NCI-H522 lung = system: NCI-H522 lung
NCI/ADR-RES ovarian = system: NCI/ADR-RES ovarian
OVCAR-3 ovarian = system: OVCAR-3 ovarian
OVCAR-4 ovarian = system: OVCAR-4 ovarian
OVCAR-5 ovarian = system: OVCAR-5 ovarian
OVCAR-8 ovarian = system: OVCAR-8 ovarian
PC-3 prostate = system: PC-3 prostate
RPMI-8226 leukemia = system: RPMI-8226 leukemia
RXF 393 renal = system: RXF 393 renal
SF-268 CNS = system: SF-268 CNS
SF-295 CNS = system: SF-295 CNS
SF-539 CNS = system: SF-539 CNS
SK-MEL-2 melanoma = system: SK-MEL-2 melanoma
SK-MEL-5 melanoma = system: SK-MEL-5 melanoma
SK-OV-3 ovarian = system: SK-OV-3 ovarian
SN12C renal = system: SN12C renal
SNB-19 CNS = system: SNB-19 CNS
SNB-75 CNS = system: SNB-75 CNS
SR leukemia = system: SR leukemia
SW-620 colon = system: SW-620 colon
T-47D breast = system: T-47D breast
TK-10 renal = system: TK-10 renal
U251 CNS = system: U251 CNS
UACC-257 melanoma = system: UACC-257 melanoma
UACC-62 melanoma = system: UACC-62 melanoma
UO-31 renal = system: UO-31 renal
MDA-MB-231 breast = system: MDA-MB-231 breast
SK-MEL-28 melanoma = system: SK-MEL-28 melanoma

## CCOC(=O)CCC(C(=O)OCC)n1nnc2ccc(Nc3c(C)[n+]([O-])c4cc(F)c(OCC)cc4[n+]3[O-])cc21 (stereo unspecified)
786-0 renal
  TGI: > 100 µM
A498 renal
  TGI: > 100 µM
A549 NSCLC
  TGI: > 100 µM
ACHN renal
  TGI: > 100 µM
BT-549 breast
  TGI: > 100 µM
CAKI-1 renal
  TGI: > 100 µM
CCRF-CEM leukemia
  TGI: > 100 µM
COLO 205 colon
  TGI: 83.5 µM
DU-145 prostate
  TGI: > 100 µM
EKVX NSCLC
  TGI: > 100 µM
HCT-116 colon
  TGI: > 100 µM
HCT-15 colon
  TGI: > 100 µM
HL-60(TB) leukemia
  TGI: > 100 µM
HOP-62 NSCLC
  TGI: > 100 µM
HOP-92 NSCLC
  TGI: > 100 µM
HS 578T breast
  TGI: > 100 µM
HT29 colon
  TGI: > 100 µM
IGROV1 ovarian
  TGI: > 100 µM
K-562 leukemia
  TGI: > 100 µM
KM12 colon
  TGI: > 100 µM
LOX IMVI melanoma
  TGI: > 100 µM
M14 melanoma
  TGI: > 100 µM
MALME-3M melanoma
  TGI: > 100 µM
MCF7 breast
  TGI: 68.6 µM
MDA-MB-435
  TGI: > 100 µM
MDA-N
  TGI: > 100 µM
MOLT-4 leukemia
  TGI: > 100 µM
NCI-H226 lung
  TGI: > 100 µM
NCI-H23 lung
  TGI: > 100 µM
NCI-H460 lung
  TGI: > 100 µM
NCI-H522 lung
  TGI: > 100 µM
NCI/ADR-RES ovarian
  TGI: > 100 µM
OVCAR-3 ovarian
  TGI: 67.4 µM
OVCAR-4 ovarian
  TGI: > 100 µM
OVCAR-5 ovarian
  TGI: > 100 µM
OVCAR-8 ovarian
  TGI: > 100 µM
PC-3 prostate
  TGI: > 100 µM
RPMI-8226 leukemia
  TGI: 54.3 µM
RXF 393 renal
  TGI: > 100 µM
SF-268 CNS
  TGI: > 100 µM
SF-295 CNS
  TGI: > 100 µM
SF-539 CNS
  TGI: 64.4 µM
SK-MEL-2 melanoma
  TGI: > 100 µM
SK-MEL-5 melanoma
  TGI: > 100 µM
SK-OV-3 ovarian
  TGI: > 100 µM
SN12C renal
  TGI: > 100 µM
SNB-19 CNS
  TGI: > 100 µM
SNB-75 CNS
  TGI: > 100 µM
SR leukemia
  TGI: > 100 µM
SW-620 colon
  TGI: > 100 µM
T-47D breast
  TGI: > 100 µM
TK-10 renal
  TGI: > 100 µM
U251 CNS
  TGI: > 100 µM
UACC-257 melanoma
  TGI: 42 µM
UACC-62 melanoma
  TGI: 43.1 µM
UO-31 renal
  TGI: > 100 µM

## O=C(c1cccnc1)N1N=C(c2ccc3c(c2)OCO3)CC1(O)c1cc(F)c(Cl)cc1Cl (stereo unspecified)
786-0 renal
  TGI: 35.2 µM
A549 NSCLC
  TGI: > 100 µM
ACHN renal
  TGI: 38.9 µM
BT-549 breast
  TGI: 47.9 µM
CAKI-1 renal
  TGI: > 100 µM
CCRF-CEM leukemia
  TGI: 75.4 µM
COLO 205 colon
  TGI: 31.2 µM
DU-145 prostate
  TGI: 59.8 µM
EKVX NSCLC
  TGI: 64.5 µM
HCT-116 colon
  TGI: 31.2 µM
HCT-15 colon
  TGI: 42.5 µM
HL-60(TB) leukemia
  TGI: 52.2 µM
HOP-62 NSCLC
  TGI: 48.7 µM
HOP-92 NSCLC
  TGI: 68.9 µM
HS 578T breast
  TGI: > 100 µM
HT29 colon
  TGI: 35.9 µM
IGROV1 ovarian
  TGI: 34.1 µM
K-562 leukemia
  TGI: > 100 µM
KM12 colon
  TGI: > 100 µM
LOX IMVI melanoma
  TGI: 30.5 µM
M14 melanoma
  TGI: > 100 µM
MALME-3M melanoma
  TGI: 54.1 µM
MDA-MB-231 breast
  TGI: 40.5 µM
MDA-MB-435
  TGI: > 100 µM
MDA-N
  TGI: > 100 µM
MOLT-4 leukemia
  TGI: > 100 µM
NCI-H226 lung
  TGI: 33.3 µM
NCI-H23 lung
  TGI: > 100 µM
NCI-H460 lung
  TGI: 36.9 µM
NCI-H522 lung
  TGI: 33.8 µM
NCI/ADR-RES ovarian
  TGI: 50.4 µM
OVCAR-3 ovarian
  TGI: 26.3 µM
OVCAR-4 ovarian
  TGI: > 100 µM
OVCAR-5 ovarian
  TGI: 49.4 µM
OVCAR-8 ovarian
  TGI: 38.4 µM
PC-3 prostate
  TGI: > 100 µM
RPMI-8226 leukemia
  TGI: > 100 µM
RXF 393 renal
  TGI: 26.1 µM
SF-268 CNS
  TGI: 49.8 µM
SF-295 CNS
  TGI: 59.4 µM
SF-539 CNS
  TGI: 33.6 µM
SK-MEL-2 melanoma
  TGI: 59.2 µM
SK-MEL-28 melanoma
  TGI: 77.5 µM
SK-MEL-5 melanoma
  TGI: 28.8 µM
SK-OV-3 ovarian
  TGI: > 100 µM
SN12C renal
  TGI: 36.5 µM
SNB-19 CNS
  TGI: > 100 µM
SNB-75 CNS
  TGI: 39.8 µM
SR leukemia
  TGI: 76.4 µM
SW-620 colon
  TGI: 84.5 µM
T-47D breast
  TGI: 43.2 µM
TK-10 renal
  TGI: > 100 µM
U251 CNS
  TGI: 32.9 µM
UACC-257 melanoma
  TGI: 51.2 µM
UO-31 renal
  TGI: 41.3 µM
